From patent publication US4607123A, “Water soluble 3,5-diacetamido-2,4,6-triiodobenzoic acid derivatives” (Dr. Franz Kohler Chemie GmbH, priority 1984, dated 1986)

Experiments:
[1] = viscosity of aqueous preparations (Table 1); format: physicochemical
Text: The derivatives of compounds (I) of the invention which show a good solubility in water generally show viscosity values which, as can be expected, are dependent from the number and position of the hydroxy groups, as well as from the configuration of the amino acid residue. Representative compounds of the invention are shown in the Table 1, with their viscosity values.
Viscosity data in dependency from the type of amino acid and
the concentration of the preparation.

[2] = water solubility; format: physicochemical; conditions: for solubility (in words): in water; for solubility: water
Text: The configuration of the α-amino acid moiety may be arbitrary. The type of amino acid residue influences to a degree the solubility of the compound of the invention in water. For example, […]

[3] = LD50 in mouse, i.v. (Table 3); format: in vivo; conditions: in vivo, iv, 14 days after application, solution with 300 mg J/ml
Experimental: (§1) LD50 in mouse, i.v. (14 days after application) of solution
(§2) with a content of 300 mg J/ml.

[4] = system: mouse; experiment: LD50 in mouse, i.v. (Table 3); format: in vivo
Experimental: as §1, §2

[5] = heat stability of a 67,9% aq. solution at different temperatures and times (Table 2); format: physicochemical
Text: Behaviour of a 67,9% aq. solution of (II) at different temperatures

**Q.** Which Viscosity ([1]; 20° C., 100 mg J/ml) does the source give for `CC(=O)Nc1c(I)c(NC(C)=O)c(I)c(C(=O)N[C@@H](CC(=O)N(C)C[C@H](O)[C@@H](O)[C@H](O)[C@H](O)CO)C(=O)N(C)C[C@H](O)[C@@H](O)[C@H](O)[C@H](O)CO)c1I` [IX, N,N-[(3,5-diacetamido-2,4,6-triiodobenzoyl)-L-aspartic acid]-bis-N-methyl glucamide] here?
**A.** 2.90 cP

**Q.** And the Viscosity ([1]; 20° C., 150 mg J/ml)?
**A.** 5.15 cP

**Q.** And the Viscosity ([1]; 20° C., 200 mg J/ml)?
**A.** 11.14 cP

**Q.** What about the Viscosity ([1]; 20° C., 250 mg J/ml) of the same compound?
**A.** 33.58 cP

**Q.** What about the Viscosity ([1]; 20° C., 300 mg J/ml) of the same compound?
**A.** 88.85 cP

**Q.** What about the Viscosity ([1]; 37° C., 100 mg J/ml) of the same compound?
**A.** 1.84 cP

**Q.** And the Viscosity ([1]; 37° C., 150 mg J/ml)?
**A.** 3.04 cP

**Q.** And the Viscosity ([1]; 37° C., 200 mg J/ml)?
**A.** 6.06 cP

**Q.** And the Viscosity ([1]; 37° C., 250 mg J/ml)?
**A.** 15.96 cP

**Q.** And the Viscosity ([1]; 37° C., 300 mg J/ml)?
**A.** 35.41 cP

**Q.** What about the “solubility (in words)” value [2] of the same compound?
**A.** superior in respect to solubility

**Q.** What about the solubility ([2]; very soluble) of the same compound?
**A.** > 1000 mg/mL

**Q.** For `CC(=O)Nc1c(I)c(NC(C)=O)c(I)c(C(=O)NCCCC(=O)N(C)C[C@H](O)[C@@H](O)[C@H](O)[C@H](O)CO)c1I` [V, N,N-[(3,5-diacetamido-2,4,6-triiodobenzoyl)-γ-aminobutyric acid]-N-methyl glucamide], which solubility ([2]; moderately soluble) is on record?
**A.** ≤ 200 mg/mL

**Q.** With `CC(=O)Nc1c(I)c(NC(C)=O)c(I)c(C(=O)NCCC(=O)N(C)C[C@H](O)[C@@H](O)[C@H](O)[C@H](O)CO)c1I` [IV, N,N-[(3,5-diacetamido-2,4,6-triiodobenzoyl)-β-alanine]-N-methyl glucamide] as the compound, how does the solubility ([2]; moderately soluble) read?
**A.** ≤ 200 mg/mL

**Q.** With `CC(=O)Nc1c(I)c(NC(C)=O)c(I)c(C(=O)O)c1I` [sodium-meglumine-diatrizoate, reference compound] as the compound, how does the LD50 at 336 h [3] read?
**A.** 12000 to 14000 mg/kg

**Q.** Which results are given for `CC(=O)Nc1c(I)c(NC(C)=O)c(I)c(C(=O)N[C@@H](CO)C(=O)N(C)C[C@H](O)[C@@H](O)[C@H](O)[C@H](O)CO)c1I` [VIII, N,N-[(3,5-diacetamido-2,4,6-triiodobenzoyl)-L-serine]-N-methyl glucamide]?
**A.** Viscosity ([1]; 20° C., 100 mg J/ml): 2.13 cP; Viscosity ([1]; 20° C., 150 mg J/ml): 3.11 cP; Viscosity ([1]; 20° C., 200 mg J/ml): 5.15 cP; Viscosity ([1]; 20° C., 250 mg J/ml): 9.43 cP; Viscosity ([1]; 20° C., 300 mg J/ml): 20.05 cP; Viscosity ([1]; 37° C., 100 mg J/ml): 1.84 cP; Viscosity ([1]; 37° C., 150 mg J/ml): 1.95 cP; Viscosity ([1]; 37° C., 200 mg J/ml): 3.04 cP; Viscosity ([1]; 37° C., 250 mg J/ml): 5.16 cP; Viscosity ([1]; 37° C., 300 mg J/ml): 9.71 cP; solubility ([2]; soluble): ≤ 500 mg/mL

**Q.** With `CC(=O)Nc1c(I)c(NC(C)=O)c(I)c(C(=O)N[C@@H](C)C(=O)N(C)C[C@H](O)[C@@H](O)[C@H](O)[C@H](O)CO)c1I` [III, N,N-[(3,5-diacetamido-2,4,6-triiodobenzoyl)-L-alanine]-N-methyl glucamide] as the compound, how does the solubility ([2]; soluble) read?
**A.** ≤ 500 mg/mL

**Q.** For `CC(=O)Nc1c(I)c(NC(C)=O)c(I)c(C(=O)N[C@@H](CCC(=O)N(C)C[C@H](O)[C@@H](O)[C@H](O)[C@H](O)CO)C(=O)N(C)C[C@H](O)[C@@H](O)[C@H](O)[C@H](O)CO)c1I` [XI, N,N-[(3,5-diacetamido-2,4,6-triiodobenzoyl)-L-glutamic acid]-bis-N-methyl glucamide], which “solubility (in words)” value [2] is on record?
**A.** superior in respect to solubility

**Q.** What about the solubility ([2]; moderately soluble) of the same compound?
**A.** ≤ 200 mg/mL

**Q.** What about the solubility ([2]; very soluble) of the same compound?
**A.** > 1000 mg/mL

**Q.** With `CC(=O)Nc1c(I)c(NC(C)=O)c(I)c(C(=O)NC(CC(=O)N(C)C[C@H](O)[C@@H](O)[C@H](O)[C@H](O)CO)C(=O)N(C)C[C@H](O)[C@@H](O)[C@H](O)[C@H](O)CO)c1I` (mixture of isomers) [X, N,N-[(3,5-diacetamido-2,4,6-triiodobenzoyl)-DL-aspartic acid]-bis-N-methyl glucamide] as the compound, how does the Viscosity ([1]; 20° C., 200 mg J/ml) read?
**A.** 10.65 cP

**Q.** And the Viscosity ([1]; 20° C., 250 mg J/ml)?
**A.** 25.38 cP

**Q.** And the Viscosity ([1]; 37° C., 200 mg J/ml)?
**A.** 5.84 cP

**Q.** What about the Viscosity ([1]; 37° C., 250 mg J/ml) of the same compound?
**A.** 12.23 cP

**Q.** What about the “solubility (in words)” value [2] of the same compound?
**A.** superior in respect to solubility

**Q.** What about the solubility ([2]; very soluble) of the same compound?
**A.** > 1000 mg/mL

**Q.** For `CC(=O)Nc1c(I)c(NC(C)=O)c(I)c(C(=O)NCCCC[C@H](NC(=O)C(C)O)C(=O)N(C)C[C@H](O)[C@@H](O)[C@H](O)[C@H](O)CO)c1I` (stereo partly drawn) [XII, N,N-[α-lactyl-ε-(3,5-diacetamido-2,4,6-triiodobenzoyl)-L-lysine]-N-methyl glucamide], which solubility ([2]; moderately soluble) is on record?
**A.** ≤ 200 mg/mL

**Q.** With `CC(=O)Nc1c(I)c(NC(C)=O)c(I)c(C(=O)O)c1I` [lysine-diatrizoate, reference compound] as the compound, how does the LD50 ([4]; i.v., 14 days after application, solution with 300 mg J/ml, 20160 min) read?
**A.** 14000 to 18000 mg/kg

**Q.** For `CC(=O)Nc1c(I)c(NC(C)=O)c(I)c(C(=O)N(C)CC(=O)N(C)C[C@H](O)[C@@H](O)[C@H](O)[C@H](O)CO)c1I` [II, N,N-[(3,5-diacetamido-2,4,6-triiodobenzoyl)-sarcosine]-N-methyl glucamide], which Color ([5]; 30 min, 110 °C.) is on record?
**A.** colorless

**Q.** What about the Iodide ([5]; 30 min, 110 °C.) of the same compound?
**A.** 2.63 mg J/100 ml

**Q.** What about the pH ([5]; 30 min, 110 °C.) of the same compound?
**A.** 7.85

**Q.** What about the Color ([5]; 30 min, 120 °C.) of the same compound?
**A.** colorless

**Q.** And the Iodide ([5]; 30 min, 120 °C.)?
**A.** 3.73 mg J/100 ml

**Q.** And the pH ([5]; 30 min, 120 °C.)?
**A.** 7.80

**Q.** And the Color ([5]; 60 min, 110 °C.)?
**A.** colorless

**Q.** What about the Iodide ([5]; 60 min, 110 °C.) of the same compound?
**A.** 3.72 mg J/100 ml

**Q.** And the pH ([5]; 60 min, 110 °C.)?
**A.** 7.75

**Q.** And the Color ([5]; base solution)?
**A.** colorless

**Q.** And the Iodide ([5]; base solution)?
**A.** 1.78 mg J/100 ml

**Q.** What about the pH ([5]; base solution) of the same compound?
**A.** 7.85

**Q.** What about the Viscosity ([1]; 20° C., 100 mg J/ml) of the same compound?
**A.** 2.16 cP

**Q.** And the Viscosity ([1]; 20° C., 150 mg J/ml)?
**A.** 3.50 cP

**Q.** And the Viscosity ([1]; 20° C., 200 mg J/ml)?
**A.** 5.74 cP

**Q.** And the Viscosity ([1]; 20° C., 250 mg J/ml)?
**A.** 10.84 cP

**Q.** What about the Viscosity ([1]; 20° C., 300 mg J/ml) of the same compound?
**A.** 18.88 cP

**Q.** What about the Viscosity ([1]; 37° C., 100 mg J/ml) of the same compound?
**A.** 1.48 cP

**Q.** What about the Viscosity ([1]; 37° C., 150 mg J/ml) of the same compound?
**A.** 2.22 cP

**Q.** And the Viscosity ([1]; 37° C., 200 mg J/ml)?
**A.** 3.32 cP

**Q.** What about the Viscosity ([1]; 37° C., 250 mg J/ml) of the same compound?
**A.** 6.20 cP

**Q.** What about the Viscosity ([1]; 37° C., 300 mg J/ml) of the same compound?
**A.** 9.22 cP

**Q.** What about the LD50 at 336 h [3] of the same compound?
**A.** 36000 mg/kg

**Q.** And the “toxicity (in words)” value ([4]; in vivo)?
**A.** low toxicity

**Q.** What about the “solubility (in words)” value [2] of the same compound?
**A.** superior in respect to solubility

**Q.** And the solubility ([2]; very soluble)?
**A.** > 1000 mg/mL
